Source: patent publication US20080199606A1, “Composition for the Impregnation of Fibers, Fabrics and Nettings Imparting a Protective Activity Against Pests” (BASF Aktiengesellschaft, priority 2005, published 2008)

Test system: mosquitoes
Experiment: WHO cone test of treated, washed polyester nettings (knockdown, 24-hour mortality)
Type: in vivo
Details: polyester nettings treated with insecticide composition comprising a binder of example A and the N-arylhydrazine derivative; after Montpellier washing; 3 min cone exposure
Experimental: The long-lasting insecticidal treatment was performed with aqueous dispersions according to examples A1-A17 on commercially available white polyester netting material (fiber titer 75 denier, 156 mesh, weight 28-32 g/m^2) without prior washing. The aqueous treatment baths were prepared by mixing the aqueous dispersions with emulsions of N-ethyl-2,2-dimethylpropionamide-2-(2,6-dichloro-α,α,α-trifluoro-p-tolyl)-hydrazone and N-ethyl-2,2-dichloro-1-methylcyclo-propanecarboxamide-2-(2,6-dichloro-α,α,α-tri-fluoro-p-tolyl)hydrazone, respectively, setting pH with buffer solutions and adding a fixative (if needed). The concentrations of the treatment baths were adjusted according to the liquor uptake possible (LU between 60 and 100%). The treatment baths were applied by using a padder-stenter equipment on a laboratory scale (Mathis AG, Switzerland). The netting material is fully immersed into the treatment bath and excess liquor is removed by passing it through cylinders which move in counter-direction. By choosing a defined distance between these cylinders (and thus a defined pressure) the liquor uptake can be controlled. The liquor uptake is measured by weighing an impregnated piece of netting and subtracting the weight of the dry, untreated netting and is given as % weight of liquor on weight of netting. […]

Row | Structure (SMILES) | activity (knockdown, mortality) after washing of the nettings
1 | CCN/C(=N\Nc1c(Cl)cc(C(F)(F)F)cc1Cl)C(C)(C)C [Ia-I, N-ethyl-2,2-dimethylpropionamide-2-(2,6-dichloro-α,α,α-trifluoro-p-tolyl)-hydrazone] | show an activity
2 | CCN/C(=N\Nc1c(Cl)cc(C(F)(F)F)cc1Cl)C1(C)CC1(Cl)Cl (stereo not drawn) [Ia-II, N-Ethyl-2,2-dichloro-1-methylcyclo-propanecarboxamide-2-(2,6-dichloro-α,α,α-tri-fluoro-p-tolyl)hydrazone] | show an activity
